# Experimental data published in US5066592A, “Trigramin - a platelet aggregation inhibiting polypeptide” (Temple University of the Commonwealth System of Higher …, priority 1990, dated 1991).
# Key:
# [1] = tested on: bleeding time from hamster mesentery lesion; assay: Hamster mesentery bleeding time during intravenous infusion; format: in vivo, golden Syrian hamsters
# Protocol: Female golden Syrian hamsters (90-150 g) were maintained on food and water ad libitum, but fasted overnight prior to their use in the present experiment. After the administration of anesthesia (65 mg/kg sodium pentobarbital, i.p.), the animals were shaved in preparation for surgery. The trachea was intubated with PE-100 polyethylene tubing to facilitate spontaneous breathing. Cannulation of the right femoral vein was performed to provide an intravenous route for supplemental anesthesia as well as for the administration of various control and experiment agents. A catheter was introduced into the right carotid artery for the continuous monitoring of arterial blood pressure, and a rectal temperature probe was inserted. The animal's body temperature was maintained at 37° C. with a heating pad and lamp.
# The shaved abdomen was opened by a mid-line incision and a portion of the small intestine was exteriorized and draped over a lucite pedestal. Exposed tissue was kept warm and moist by continuous superfusion with warmed (37° C.) Mammalian Ringer's Solution. Experimental solutions were infused into the right femoral vein at a rate of 0.199 ml/min with a Harvard pump for a 10 minute period. An arterial vessel (external diameter, 100-200 micrometers) located at the junction of the small intestinal wall and the mesentery was severed 4 minutes after the start of the infusion. Blood was flushed away by the superfusion system and the waste was removed with a vacuum from a well surrounding the viewing pedestal. Bleeding was observed through Zeiss dissecting microscope (20×) and bleeding time was recorded from the time of the cut until the cessation of bleeding by the formation of a hemostatic plug. Each animal was used as its own control with bleeding time determined both during the infusion of saline and the selected experimental agent. […] Four additional animals were infused with trigramin while arterial blood pressure was continuously monitored to determine if it had any direct effect on systemic blood pressure. […]
# [2] = tested on: exposed fibrinogen receptors on alpha-chymotrypsin-treated platelets; assay: 125I-fibrinogen binding to alpha-chymotrypsin-treated platelets; set-up: species or system human; settings: data not shown; read-out: IC50 of inhibition of 125I-fibrinogen binding to alpha-chymotrypsin-treated platelets
# Protocol: (§1) The following experiment illustrates that trigramin can inhibit fibrinogen binding to platelets. Human washed platelet suspension was prepared according to the method of Mustard et al., Brit. J. Haemat. 22:193-204 (1972) and suspended in Tyrode's albumin solution (pH 7.35) containing 3.5 mg/ml bovine serum albumin (Sigma, Fraction V). To 420 microliters of this platelet suspension (about 5×10^8 platelets/ml) was added 10 microliters of ^125 I-fibrinogen. An amount of trigramin was added to the suspension, followed 3 minutes later by 10 microliters ADP (final concentration 10 micromolar). Following addition of ADP, the platelet suspension was gently shaken and incubated for about another 10 minutes. Then, 400 microliters of the platelet suspension were centrifuged through silicone oil at 15,000 g in an Eppendorf centrifuge. The amount of ^125 I-fibrinogen bound to the platelet pellet was measured. Nonspecific binding of fibrinogen was measured in the presence of 6 mM EDTA. The IC50 or 50% inhibition of fibrinogen binding was determined.
# (§2) Platelet suspension was prepared as above. Platelets treated with alpha chymotrypsin (Sigma, grade IS) were prepared as described by Kornecki et al., J. Biol. Chem. 258:9349-9356 (1983), except that the incubation time of the platelets with chymotrypsin was reduced from 45 minutes to 20 minutes.
# Solubility in water = format: physicochemical
# platelets = assay: Platelet aggregation induced by prostaglandin endoperoxide analogue or thrombin; format: cell-based, human; settings: isolated platelet suspension
# [3] = target: T1, GPIb on ristocetin-stimulated platelets (Homo sapiens, UniProt P07359); assay: 125I-von Willebrand Factor binding to ristocetin-stimulated platelets; settings: ristocetin 0.75 mg/ml
# T1 construct: endogenous in cells; host or cells: platelets stimulated with ristocetin (0.75 mg/ml)
# Protocol: (§3) The final concentration of von Willebrand Factor was 5 micrograms/ml. The total specific von Willebrand Factor binding was 380+/-55 ng/10^8 platelets in the control sample. […] It is well known that von Willebrand Factor binds to GPIIb-GPIIIa complex on thrombin-stimulated platelets, and to GPIb on ristocetin-stimulated platelets.
# [4] = tested on: chymotrypsin-treated platelets; assay: Fibrinogen-induced aggregation of chymotrypsin-treated platelets (turbidimetric); format: cell-based, human; settings: fibrinogen alone, without ADP, 37° C.; read-out: IC50 for inhibition of chymotrypsin-treated platelets (aggregation)
# Protocol: as §2
# (§4) Various doses of trigramin (0.25-5.0 microgram/ml) were added to 420 microliters of platelet suspension (3×10^8 platelets per ml). One minute later, 10 microliters ADP (10 micromolar) and 10 microliters fibrinogen (200 micrograms) were added to initiate platelet aggregation. The same procedure using fibrinogen alone (without ADP) was carried out to induce aggregation of the chymotrypsin-treated platelets. The extent of platelet aggregation in each system was measured at 37° C. by the turbidimetric method of Born et al., J. Physiol. (Lond.) 168:178-195 (1963).
# [5] = tested on: melanoma cells that contain GPIIIa and vitronectin receptor; assay: Melanoma cell adhesion to fibronectin-covered substrata and cell spreading; format: cell-based
# Excerpt: We have also observed an interaction between trigramin and melanoma cells that contain GPIIIa and vitronectin receptor. […] In the system tested, the biological activity of 0.2 nmoles of trigramin corresponded to 100 nmoles of the peptide glycine-arginine-glycine-aspartic acid-serine ("GRGDS"). This observation is interesting in view of the successful efforts of Humphries et al., Science 233: 467-470 to inhibit metastases of a melanoma cell line in mice by GRGDS.
# [6] = Elimination from the circulation; settings: in vivo
# [7] = Phospholipase A activity of the HPLC-purified material; format: biochemical
# Protocol: A high performance liquid chromatography column (250×4.6 mm) containing a wide-pore C-18 silica matrix (e.g., VYDAC TPRP, The Separations Group, Hesperia, Calif.) is equilibrated at 20° C. in 0.1% trifluoroacetic acid. 150 micrograms of the above-prepared crude material in 200 microliters of 0.15M NaCl is injected into the column at a flow rate of 1.0 ml/min. The column is washed for 3 minutes. Fractions are eluted over 50 minutes with a gradient of 0-55% acetonitrile. […] The homogeneity of the purified material is confirmed by SDS-polyacrylamide gel electrophoresis with a silver stain (1 microgram). Trigramin appears as a single band with apparent molecular weight of about 9 kd on 20% gels.
# [8] = target: T2, fibrinogen receptors on platelets associated with the GPIIb-GPIIIa complex (Homo sapiens, UniProt P05106+P08514); assay: 125I-fibrinogen binding to ADP-stimulated human washed platelets; settings: ADP 10 micromolar-stimulated platelets; double-reciprocal plot FIG. 1; read-out: inhibition constant, Ki (competitive inhibition of fibrinogen binding)
# T2 construct: Human washed platelet suspension was prepared; endogenous in cells; host or cells: washed human platelets, stimulated with 10 micromolar ADP
# Protocol: as §1
# Stability to proteolysis = format: in vitro ADME
# ADP-stimulated platelets = assay: Fibrinogen-induced aggregation of ADP-stimulated platelets in suspension (turbidimetric); format: cell-based, human; settings: ADP 10 micromolar, fibrinogen 200 micrograms/ml, 37° C.; read-out: IC50 for inhibition of aggregation of ADP-stimulated platelets
# Protocol: as §2, §4
# [9] = target: T3, GPIIb-GPIIIa complex on thrombin-stimulated platelets (Homo sapiens, UniProt P05106+P08514); assay: 125I-von Willebrand Factor binding to thrombin-stimulated human platelets; settings: trigramin 10^-8 M; thrombin 0.5 u/ml; von Willebrand Factor 5 micrograms/ml
# T3 construct: endogenous in cells; host or cells: human platelets stimulated with thrombin (0.5 u/ml)
# Protocol: as §3
# GPIIb-GPIIIa complex = target: T4, GPIIb-GPIIIa complex (Homo sapiens, UniProt P05106+P08514); assay: 125I-trigramin binding to human platelets
# T4 construct: endogenous in cells; host or cells: human platelets (resting, ADP-stimulated or chymotrypsin-treated)
# Excerpt: There are several similarities between the binding of ^125 I-trigramin and the binding of ^125 I-fibrinogen to human platelets. The binding of both ligands is inhibited by EDTA; by monoclonal antibodies interacting with the GP-IIb-GPIIIa complex (Coller, J. Clin. Invest. 76:101-108 (1985) and Bennett et al., Proc. Natl. Acad. Sci. U.S.A. 80:2417-2421 (1983)); by synthetic peptides representing putative platelet binding sites on the fibrinogen molecule Arg-Gly-Asp-Ser (Gartner et al., J. Biol. Chem. 260:11891-11894 (1985) and Plow et al., Proc. Natl. Acad. Sci. U.S.A. 82:8057-8061 (1985)); and by tyrosyl pentadecapeptide of the C-terminal portion of the gamma chain, […](Kloczewiak et al., Biochemistry 23:1767-1774 (1984). […] These individuals are deficient in the GPIIb-GPIIIa complex.
# The binding affinity of trigramin to ADP-stimulated platelets resembles that of monoclonal antibodies.
molecule,measurement,setting,value
"CC#CCC(C)[C@H](O)/C=C/[C@@H]1[C@H]2C/C(=C/CCCC(=O)O)C[C@H]2C[C@H]1O (stereo partly drawn) [Iloplrost, reference compound]",time until bleeding ceased after the completion of the infusion,"[1]; one hamster, positive control, 2 ng/kg/min",approximately 9 minutes
trigramin,IC50,[2],11 nM
same,solubility in water,Solubility in water,soluble in water
same,"inhibition of platelet aggregation induced by 9,11-dideoxy-9,11-methanoepoxy-PGF2-alpha",platelets; agonist 2.5 micromolar,inhibited platelet aggregation
same,inhibition of platelet aggregation induced by thrombin,platelets; thrombin 0.5 units/ml,inhibited platelet aggregation
same,blocking of von Willebrand Factor binding to ristocetin-stimulated platelets,[3],does not block
same,IC50,[4],28 nM
same,adhesion of melanoma cells to fibronectin-covered substrata,[5],blocks the adhesion
same,melanoma cell spreading,[5],inhibits cell spreading
same,amount giving corresponding biological activity in the melanoma cell system,[5]; 0.2 nmoles of trigramin corresponded to 100 nmoles of GRGDS,0.2 nmoles
same,elimination from the circulation,[6],eliminated from the circulation rapidly
same,phospholipase A activity,[7],devoid of phospholipase A activity
same,Ki,[8],20 nM
same,bleeding time after cessation of infusion,"[1]; hamster, infusion 80 micrograms/kg/min, FIG. 4",rapid return of bleeding time to normal values
same,bleeding time of the hamster mesentery during continuous infusion,"[1]; i.v. infusion, dose-dependent, control bleeding time 3.02 minutes+/-0.43, FIG. 3",markedly increased
same,stability to proteolysis,Stability to proteolysis,relatively stable to proteolysis
same,IC50,ADP-stimulated platelets,130 nM
same,blocking of von Willebrand Factor binding to thrombin-stimulated human platelets,[9],specifically blocks
same,"binding affinity of 125I-trigramin relative to 125I-fibrinogen, judged on dissociation constants",GPIIb-GPIIIa complex; ADP-stimulated platelets,approximately 15 fold
same,binding to platelets of patients with Glanzmann's thrombasthenia,GPIIb-GPIIIa complex; platelets deficient in the GPIIb-GPIIIa complex,Neither trigramin nor fibrinogen was observed to bind sufficiently
same,number of trigramin binding sites relative to total number of fibrinogen binding sites exposed by ADP,"GPIIb-GPIIIa complex; similar on resting, ADP-stimulated and chymotrypsin-treated platelets",50%
